Assay results as given in US8242152B2, “Use of 4-[(4-thiazolyl)phenoxy]alkoxy-benzamidine derivatives for the prophylaxis and treatment of osteoporosis” (Dong Wha Pharmaceutical Co., Ltd., priority 2001, dated 2012).

Experiments:
[1] = system: bone resorption of osteoclast; assay: Measurement of bone resorption, pit formation assay on ivory fragment (Example 3); format: cell-based, mice; conditions: 24 hrs; for inhibition at 0.016 µM / inhibition at 0.08 µM / inhibition at 0.4 µM / inhibition at 2 µM / inhibition at 10 µM / IC50: Mus musculus, Osteoclast; for inhibition at 0.016 µM / inhibition at 0.08 µM / inhibition at 0.4 µM / inhibition at 2 µM / inhibition at 10 µM: read-out: Inhibitory action (%)
Procedure: The mature osteoclast (OCL) is mainly involved in removing mineral by bone resorption. This experiment is designed to measure the inhibitory effects of each test substance on the bone resorption of osteoclast using ivory fragment (Eijiro Jimi et al. Endocrinology 137, p 2187-2190, 1996).
The co-culture system for both bone marrow cells and osteoblast was performed using a cultivation dish containing collagen gel (cell matrix Type I-A). Collagen, 5-fold concentrated α-MEM medium and 0.05M NaOH buffer solution (2.2% NaHCO3, pH7.4) were mixed at the ratio of 7:2:1 at a low temperature, and then storage at a low temperature. Then, 4 mL of the mixed solution was added to a 100 mm culture dish, applied evenly and left at 37° C. for 5 minutes.
Using α-MEM medium, the mixture of both bone marrow cells (about 1×10^7 cells/plate) and osteoblast (about 5×10^5 cells/plate), so separated from Example 1, were plated on a 100 mm dish containing collagen gel. The co-culture was performed in the presence of differentiation factors such as vitamin D (10^−9M) and dexamethasone (10^−6M). As described above, a great number of mature multinucleated osteoclasts with the ability of bone resorption were obtained via a 7-day co-culture. The medium was removed from the cells and with the addition of 0.2% collagenase solution, the attachment cells were separated by incubation for 20 minutes. The cells were collected via centrifuge. The harvested crude osteoclasts were again diluted in α-MEM medium to make the cells of 5,000 cells/100 ul.
Hematoxylin staining solution was prepared in a manner such that hematoxylin (1 g) was dissolved in 500 ml of distilled water and was added to 500 ml of distilled water and […] (0.2 g). The reaction mixture was stirred for 15 mins. Ammonium alum (50 g) and 7.5 ml of acetic acid were further added to the reaction mixture and filtered off.
After the ivory fragments, cut to a thickness of 1 mm, were sterilized, each fragment was placed into a 96 well plate, and 100 ul α-MEM medium (10% FBS) was added. To measure its inhibitory effect against the pit formation of osteoclast, each test substance was added in a maximum amount of 3 ul per concentration.
With the addition of test substances, 100 ul of osteoclast solution was further added, mixed vigorously and cultured using a 5% CO2 incubator at 37° C. for 24 hrs. To observe the pits formed on the ivory fragments, the portion of grown osteoclast was directed upward and placed on a paper towel after removing from the 96 well plate. With the removal of cells on the ivory, 10 ul of hematoxylin solution was dropped on the ivory to perform the staining for about 5 minutes. The surface of the ivory fragments was rubbed with a soft cotton pole to completely remove the staining solution.

LTB4 receptor = LTB4 receptor (Homo sapiens, UniProt Q15722); assay: LTB4 receptor binding assay on human neutrophils ([3H]-LTB4); design: endogenous in cells; host or cells: human neutrophils (PMN) purified from fresh blood; conditions: 100 nM; versus DW1350
Procedure: Neutrophils (PMN) were purified from freshly drawn human blood by standard techniques or dextran T-500 sedimentation and centrifugation on Ficoll/Paquc (pharmacia) followed by hypotonic lysis of crythrocyte. The purified PMN were resuspended to a final concentration of 3×10^7 cells/ml in HESS (Hank's balanced salt solution, Gibco).
The assay was performed following the method described elsewhere (Brown. A. R.; Grccnham, N. C.; Burroughes, J. H.: Bradely, D. C. C.; Friend. R. H.; Burn, P. L.; Kraft. A.: Holmes, A. B.; Chem. Phys, Lett. 1992, 200, 1246). LTB4 receptor binding assay was performed in 12×75 mm polypropylene tubes containing 0.5 nM of [^3H]-LTB4 (200 Ci/mmol), competitive compound, and cells suspended in HBSS (3×10^6 cells) (final volume: 200 ul). The tubes were incubated on ice for 45 minutes. Free and PMN bound [^3H]-LTB4 were separated by filtration through Whatman GF/C filters. The filters were then washed three times with 5 ml of ice cold Tris buffer (pH 7.4). […] The radioactivity was measured by liquid scintillation spectrometry. The specific binding was determined as the count difference total binding and binding in the presence of 1000-fold excess of unlabeled LTB4 (Scontrol). The LTB4 binding activity was calculated from the percent inhibition of specific [^3H]-LTB4 binding at various concentrations (Ssample). […]

Sequence of LTB4 receptor (Q15722 whole entry): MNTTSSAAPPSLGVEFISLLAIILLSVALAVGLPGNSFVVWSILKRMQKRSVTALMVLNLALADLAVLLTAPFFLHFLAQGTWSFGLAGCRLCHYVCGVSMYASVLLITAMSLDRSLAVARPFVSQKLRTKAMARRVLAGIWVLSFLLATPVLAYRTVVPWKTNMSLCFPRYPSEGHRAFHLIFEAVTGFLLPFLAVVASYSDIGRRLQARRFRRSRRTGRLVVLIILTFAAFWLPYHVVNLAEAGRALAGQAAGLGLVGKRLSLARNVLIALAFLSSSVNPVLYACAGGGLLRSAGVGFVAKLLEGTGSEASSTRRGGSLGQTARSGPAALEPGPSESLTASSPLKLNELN

In the case of “4-[5-[4-(aminoiminomethyl)phenoxy]pentoxy]-3-methoxy-N,N-bis(1-methylethyl)benzamide maleic acid [CGS-25019C]”, the “Inhibitory action (%)” value ([1]; 0.016 μM) is reported as 0%, the “Inhibitory action (%)” value ([1]; 0.08 μM) is reported as 0% and the “Inhibitory action (%)” value ([1]; 0.4 μM) is reported as 2%. For the same compound, the “Inhibitory action (%)” value ([1]; 2 μM) was 9.2% and the “Inhibitory action (%)” value ([1]; 10 μM) was 17.3%.
In the case of `Cc1nc(-c2ccc(OCCCCOc3ccc(C(=N)NO)cc3)cc2)c(C(C)C)s1` [DW1349, N— hydroxy-4-{4-[4-(5-isopropyl-2-methyl-1,3-thiazol-4-yl)phenoxy]butoxy}-benzamidine], the “times the inhibition of LTB4 receptor binding of DW1350” value (LTB4 receptor) is reported as “more than three times”.
Work on `Cc1nc(-c2ccc(OCCCCCOc3ccc(C(=N)NO)cc3)cc2)c(C(C)C)s1` [DW1350, N-hydroxy-4-{5-[4-(5-isopropyl-2-methyl-1,3-thiazol-4-yl)phenoxy]pentoxy}-benzamidine] yielded an inhibition at 0.016 µM ([1]; 0.016 μM) of 32.2%, an inhibition at 0.08 µM ([1]; 0.08 μM) of 53.9% and an inhibition at 0.4 µM ([1]; 0.4 μM) of 65.2%. For the same compound, the inhibition at 2 µM ([1]; 2 μM) was 84.3%, the inhibition at 10 µM ([1]; 10 μM) was 91.3% and the IC50 [1] was 75 nM.
`Cc1nc(-c2ccc(OCCCCOc3ccc(C(=N)N)cc3)cc2)c(C(C)C)s1` [DW1351, 4-{4-[4-(5-isopropyl-2-methyl-1,3-thiazol-4-yl)phenoxy]butoxy}-benzamidine] was tested, and the “times the inhibition of LTB4 receptor binding of DW1350” value (LTB4 receptor) was “more than eight times”.
For `Cc1nc(-c2ccc(OCCCCCOc3ccc(C(=N)N)cc3)cc2)c(C(C)C)s1` [DW1352, 4-{5-[4-(5-isopropyl-2-methyl-1,3-thiazol-4-yl)phenoxy]pentoxy}-benzamidine], the inhibition at 0.016 µM ([1]; 0.016 μM) was 25%, the inhibition at 0.08 µM ([1]; 0.08 μM) was 48.7% and the inhibition at 0.4 µM ([1]; 0.4 μM) was 61.3%. The inhibition at 2 µM ([1]; 2 μM) was 81.7%, the inhibition at 10 µM ([1]; 10 μM) was 90% and the IC50 [1] was 131 nM.
For `COc1cc(C(=O)N(C(C)C)C(C)C)ccc1OCCCCOc1ccc2c(N)noc2c1` [HS1141, N,N-diisopropyl-4-[4-(3-aminobenzo[d]isooxazole-6-yloxy)butoxy]-3-methoxybenzamide], the inhibition at 0.016 µM ([1]; 0.016 μM) was 9%, the inhibition at 0.08 µM ([1]; 0.08 μM) was 33% and the inhibition at 0.4 µM ([1]; 0.4 μM) was 50.4%. The inhibition at 2 µM ([1]; 2 μM) was 75.3%, the inhibition at 10 µM ([1]; 10 μM) was 88.7% and the IC50 [1] was 421 nM.
